Assay results reported in ChEMBL document CHEMBL1157088, “Gukulenins A and B, cytotoxic tetraterpenoids from the marine sponge Phorbas gukulensis” (J Nat Prod, 2010).

Key:
Format in all cases: functional, cell-based
MKN-45 = assay: Cytotoxicity against human MKN45 cells after 24 hrs by MTT assay; details: MKN-45, 24 h
FaDu = assay: Cytotoxicity against human FADU cells after 24 hrs by MTT assay
HCT-116 = assay: Cytotoxicity against human HCT116 cells after 24 hrs by MTT assay; details: HCT-116, 24 h
SN12C = assay: Cytotoxicity against human SN12C cells after 24 hrs by MTT assay

Row | SMILES | IC50 (MKN-45) [nM] | IC50 (FaDu) [nM] | IC50 (HCT-116) [nM] | IC50 (SN12C) [nM]
1 | CC(=O)O[C@@H](C=O)[C@]1(C)CC[C@H](C(C)C)[C@@H]1c1cc([C@]2(O)Cc3cc(O)c(=O)c(C)c4c3[C@@H](O2)[C@H](O)[C@]2(C)CC[C@H](C(C)C)[C@H]42)cc(O)c(=O)c1C [GUKULENIN A] | 130 | 57 | 62 | 92
2 | CC(=O)O[C@@H](CO)[C@]1(C)CC[C@H](C(C)C)[C@@H]1c1cc([C@]2(O)Cc3cc(O)c(=O)c(C)c4c3[C@@H](O2)[C@H](O)[C@]2(C)CC[C@H](C(C)C)[C@H]42)cc(O)c(=O)c1C [GUKULENIN B] | 720 | 630 | 550 | 610
